Results on 13 compounds are retold here after ChEMBL document CHEMBL1833797, “Microwave assisted synthesis and antimicrobial evaluation of new fused pyran derivatives bearing 2-morpholinoquinoline nucleus” (2011).

One test concerns Vibrio cholerae. Put plainly: Antimicrobial activity against Vibrio cholerae MTCC 3906 for 24 hrs by microdilution method. Type of test: functional. The following applies: MTCC 3906, 24 h.
Another test concerns Bacillus subtilis. The test can be described thus: Antimicrobial activity against Bacillus subtilis MTCC 441 for 24 hrs by microdilution method. Type of test: functional. The following applies: MTCC 441, 24 h.
In another test the test system is Clostridium tetani. The test can be described thus: Antimicrobial activity against Clostridium tetani MTCC 449 for 24 hrs by microdilution method. It is filed as functional. The following applies: MTCC 449, 24 h.
In the next test the test system is Salmonella typhi. The test can be described thus: Antimicrobial activity against Salmonella typhi MTCC 98 for 24 hrs by microdilution method. Particulars: Salmonella enterica, MTCC 98, 24 h. It is filed as functional, Salmonella enterica subsp. enterica serovar Typhi.
The next test relates to Streptococcus pneumoniae. Put plainly: Antimicrobial activity against Streptococcus pneumoniae MTCC 1936 for 24 hrs by microdilution method. The following applies: MTCC 1936, 24 h. Type of test: functional.
The next test concerns Aspergillus fumigatus. Put plainly: Antifungal activity against Aspergillus fumigatus MTCC 3008 for 48 hrs by microdilution method. It is filed as functional.
The test system of the next test is Escherichia coli. The test can be described thus: Antimicrobial activity against Escherichia coli MTCC 443 for 24 hrs by microdilution method. It is filed as functional. The following applies: MTCC 443, 24 h.
The subject of the next test is Candida albicans. The test can be described thus: Antifungal activity against Candida albicans MTCC 227 for 48 hrs by microdilution method. It is filed as functional.

≈ marks a conversion by molar mass, not a printed value.

With `Cc1n[nH]c2c1C(c1cc3ccccc3nc1N1CCOCC1)C(C#N)=C(N)O2` (stereo unspecified), the MIC in the test with Vibrio cholerae was 200 µg/mL (≈ 515 µM); in the test on Bacillus subtilis it was 250 µg/mL (≈ 644 µM); in the test with Clostridium tetani it was 100 µg/mL (≈ 257 µM); against Salmonella typhi, 100 µg/mL (≈ 257 µM); with Streptococcus pneumoniae it was 250 µg/mL (≈ 644 µM); in the test on Aspergillus fumigatus (MTCC 3008, 48 h), 1000 µg/mL (≈ 2570 µM). The MIC against Escherichia coli came out at 62.5 µg/mL (≈ 161 µM); in the test with Candida albicans (MTCC 227, 48 h), 1000 µg/mL (≈ 2570 µM).
As for `N#CC1=C(N)Oc2c(ccc3ccccc23)C1c1cc2ccccc2nc1N1CCOCC1` (stereo unspecified), the MIC in the test on Vibrio cholerae was 500 µg/mL (≈ 1150 µM); against Bacillus subtilis, 250 µg/mL (≈ 575 µM); in the test on Clostridium tetani, 250 µg/mL (≈ 575 µM); in the test on Salmonella typhi, 500 µg/mL (≈ 1150 µM); in the test on Streptococcus pneumoniae, 500 µg/mL (≈ 1150 µM); in the test with Aspergillus fumigatus (MTCC 3008, 48 h) it was above 1000 µg/mL. The MIC was determined as 500 µg/mL (≈ 1150 µM) against Escherichia coli and 500 µg/mL (≈ 1150 µM) in the test with Candida albicans (MTCC 227, 48 h).
On to NYSTATIN, for which the MIC in the test with Aspergillus fumigatus and against Candida albicans was 100 µg/mL in each case.
For `COc1ccc2nc(N3CCOCC3)c(C3C(C#N)=C(N)Oc4[nH]nc(C)c43)cc2c1` (stereo unspecified), the MIC is 250 µg/mL (≈ 597 µM) in the test on Vibrio cholerae; 200 µg/mL (≈ 478 µM) in the test with Bacillus subtilis; 250 µg/mL (≈ 597 µM) with Clostridium tetani; 250 µg/mL (≈ 597 µM) with Salmonella typhi; 200 µg/mL (≈ 478 µM) against Streptococcus pneumoniae; 500 µg/mL (≈ 1190 µM) in the test with Aspergillus fumigatus (MTCC 3008, 48 h). Also, the MIC in the test on Escherichia coli was found to be 250 µg/mL (≈ 597 µM); with Candida albicans (MTCC 227, 48 h), 250 µg/mL (≈ 597 µM).
Consider `Cc1ccc2nc(N3CCOCC3)c(C3C(C#N)=C(N)Oc4[nH]nc(C)c43)cc2c1` (stereo unspecified), for which the MIC in the test on Vibrio cholerae came to 250 µg/mL (≈ 621 µM); in the test on Bacillus subtilis it was 200 µg/mL (≈ 497 µM); with Clostridium tetani, 250 µg/mL (≈ 621 µM); with Salmonella typhi it was 250 µg/mL (≈ 621 µM); with Streptococcus pneumoniae, 200 µg/mL (≈ 497 µM); against Aspergillus fumigatus (MTCC 3008, 48 h), 1000 µg/mL (≈ 2480 µM). Also, the MIC is 200 µg/mL (≈ 497 µM) with Escherichia coli and 1000 µg/mL (≈ 2480 µM) against Candida albicans (MTCC 227, 48 h).
For `O=C(N[C@H](CO)[C@H](O)c1ccc([N+](=O)[O-])cc1)C(Cl)Cl` [CHLORAMPHENICOL], the MIC with Vibrio cholerae, with Bacillus subtilis, in the test on Clostridium tetani, against Salmonella typhi, with Streptococcus pneumoniae and in the test on Escherichia coli was 50 µg/mL (≈ 155 µM) throughout.
In the case of `COC1=CC(=O)C[C@@H](C)[C@]12Oc1c(Cl)c(OC)cc(OC)c1C2=O` [GRISEOFULVIN], the MIC was found to be 100 µg/mL (≈ 283 µM) with Aspergillus fumigatus (MTCC 3008, 48 h) and 500 µg/mL (≈ 1420 µM) in the test with Candida albicans (MTCC 227, 48 h).
For `Cc1ccc2nc(N3CCOCC3)c(C3C(C#N)=C(N)Oc4c3c(=O)oc3ccccc43)cc2c1` (stereo unspecified), the MIC in the test on Vibrio cholerae was 12.5 µg/mL (≈ 26.8 µM); against Bacillus subtilis, 500 µg/mL (≈ 1070 µM); in the test with Clostridium tetani it was 250 µg/mL (≈ 536 µM); in the test on Salmonella typhi, 250 µg/mL (≈ 536 µM); against Streptococcus pneumoniae, 500 µg/mL (≈ 1070 µM); with Aspergillus fumigatus (MTCC 3008, 48 h) it was 500 µg/mL (≈ 1070 µM). Besides, the MIC against Escherichia coli amounted to 250 µg/mL (≈ 536 µM); in the test on Candida albicans (MTCC 227, 48 h), 500 µg/mL (≈ 1070 µM).
`N#CC1=C(N)OC2=C(C(=O)CCC2)C1c1cc2ccccc2nc1N1CCOCC1` (stereo unspecified): the MIC in the test on Vibrio cholerae was 250 µg/mL (≈ 621 µM); in the test on Bacillus subtilis it was 100 µg/mL (≈ 248 µM); with Clostridium tetani, 250 µg/mL (≈ 621 µM); with Salmonella typhi, 250 µg/mL (≈ 621 µM); against Streptococcus pneumoniae, 100 µg/mL (≈ 248 µM); against Aspergillus fumigatus (MTCC 3008, 48 h) it was above 1000 µg/mL. The MIC turned out to be 250 µg/mL (≈ 621 µM) in the test with Escherichia coli and 1000 µg/mL (≈ 2480 µM) against Candida albicans (MTCC 227, 48 h).
In the case of `CC1(C)CC(=O)C2=C(C1)OC(N)=C(C#N)C2c1cc2ccccc2nc1N1CCOCC1` (stereo unspecified), the minimum inhibitory concentration (MIC) with Vibrio cholerae stood at 250 µg/mL (≈ 581 µM); against Bacillus subtilis it was 200 µg/mL (≈ 465 µM); with Clostridium tetani, 250 µg/mL (≈ 581 µM); against Salmonella typhi it was 200 µg/mL (≈ 465 µM); with Streptococcus pneumoniae it was 500 µg/mL (≈ 1160 µM); in the test with Aspergillus fumigatus (MTCC 3008, 48 h) it was 1000 µg/mL (≈ 2320 µM). In addition, the MIC against Escherichia coli is 250 µg/mL (≈ 581 µM); with Candida albicans (MTCC 227, 48 h), 500 µg/mL (≈ 1160 µM).
With `COc1ccc2nc(N3CCOCC3)c(C3C(C#N)=C(N)Oc4cc(C)oc(=O)c43)cc2c1` (stereo unspecified), the MIC turned out to be 250 µg/mL (≈ 560 µM) against Vibrio cholerae; 200 µg/mL (≈ 448 µM) in the test with Bacillus subtilis; 250 µg/mL (≈ 560 µM) against Clostridium tetani; 250 µg/mL (≈ 560 µM) with Salmonella typhi; 250 µg/mL (≈ 560 µM) in the test on Streptococcus pneumoniae; 1000 µg/mL (≈ 2240 µM) against Aspergillus fumigatus (MTCC 3008, 48 h). Also, the MIC in the test with Escherichia coli worked out at 200 µg/mL (≈ 448 µM); against Candida albicans (MTCC 227, 48 h) it was 250 µg/mL (≈ 560 µM).
Regarding `O=C(O)c1cn(C2CC2)c2cc(N3CCNCC3)c(F)cc2c1=O` [CIPROFLOXACIN], the MIC against Vibrio cholerae was determined as 25 µg/mL (≈ 75.4 µM); with Salmonella typhi it was 25 µg/mL (≈ 75.4 µM); against Streptococcus pneumoniae, 50 µg/mL (≈ 151 µM); against Escherichia coli it was 25 µg/mL (≈ 75.4 µM).
For `COc1ccc2nc(N3CCOCC3)c(C3C(C#N)=C(N)OC4=C3C(=O)CC(C)(C)C4)cc2c1` (stereo unspecified), the minimal inhibitory concentration (MIC) in the test on Vibrio cholerae was found to be 500 µg/mL (≈ 1090 µM); against Bacillus subtilis it was 100 µg/mL (≈ 217 µM); with Clostridium tetani it was 500 µg/mL (≈ 1090 µM); in the test with Salmonella typhi it was 500 µg/mL (≈ 1090 µM); in the test with Streptococcus pneumoniae it was 100 µg/mL (≈ 217 µM); in the test on Aspergillus fumigatus (MTCC 3008, 48 h), 100 µg/mL (≈ 217 µM). The MIC in the test on Escherichia coli worked out at 500 µg/mL (≈ 1090 µM); against Candida albicans (MTCC 227, 48 h) it was 1000 µg/mL (≈ 2170 µM).
